Read-outs that look alike come from different tables or passages of the source.
Legend:
11β-hsd-1 enzyme [1] = target: T1, 11β-hsd-1 enzyme (Homo sapiens, UniProt P28845); experiment: 11β-hsd-1 enzyme assay, Kiapp determination (3H-cortisone to cortisol, radio-HPLC); type: biochemical; settings: read-out: Ki app
11β-hsd-1 enzyme [2] = target: T1, 11β-hsd-1 enzyme; experiment: 11β-hsd-1 enzyme assay, percentage of inhibition (3H-cortisone to cortisol, radio-HPLC); type: biochemical
healthy human volunteers = settings: cited from earlier work
normal subjects = settings: ingestion; cited from earlier work
[3] = compound at 0.1 uM, read-out: % inh @ 0.1 uM
[4] = 0.1 uM, read-out: % inh @ 0.1 uM

T1 sequence (P28845 whole entry, species assumed): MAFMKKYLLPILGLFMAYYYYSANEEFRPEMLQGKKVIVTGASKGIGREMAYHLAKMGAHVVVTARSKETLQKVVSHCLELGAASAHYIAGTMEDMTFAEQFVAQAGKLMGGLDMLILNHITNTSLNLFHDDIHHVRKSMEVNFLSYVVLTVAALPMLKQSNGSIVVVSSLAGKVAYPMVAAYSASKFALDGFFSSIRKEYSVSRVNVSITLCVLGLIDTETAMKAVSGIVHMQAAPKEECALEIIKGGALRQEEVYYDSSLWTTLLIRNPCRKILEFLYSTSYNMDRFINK

| SMILES | Ki (11β-hsd-1 enzyme [1]; apparent Ki, 11β-hsd-1 enzyme) | inhibition at 0.1 µM (11β-hsd-1 enzyme [2]; [3]) | Ki (11β-hsd-1 enzyme [1]) | inhibition at 0.1 µM (11β-hsd-1 enzyme [2]; [4]) | also measured |
| --- | --- | --- | --- | --- | --- |
| Cc1cccc(NS(=O)(=O)N2CCC(c3cccc(F)c3)CC2)n1 [Example 309] | 7.6 nM | 90% |  |  |  |
| Cc1cccc(NS(=O)(=O)c2ccc(-c3cc(F)c(F)c(F)c3)c(C)c2)n1 [Example 228] | 29 nM | 74% |  |  |  |
| Cc1cccc(NS(=O)(=O)c2ccc(-c3cccc(F)c3)cc2C)n1 [Example 173] |  |  | 9.6 nM | 97% |  |
| Cc1cccc(NS(=O)(=O)c2ccc(-c3ccc(C#N)cc3)cc2)n1 [Example 33, 4′-Cyano-biphenyl-4-sulfonic acid (6-methyl-pyridin-2-yl)-amide] |  |  | 6.4 nM | 97% |  |
| Cc1cccc(NS(=O)(=O)c2ccc(C(C)C)cc2)n1 [Example 70] |  |  | 216 nM | 78.7% |  |
| Cc1cccc(NS(=O)(=O)/C=C/c2ccccc2)n1 [Example 109] |  |  | 270 nM | 57.2% |  |
| Cc1cccc(NS(=O)(=O)c2ccc(-c3cccc(F)c3F)cc2C)n1 [Example 198] | 7.5 nM | 100% |  |  |  |
| Cc1cccc(NS(=O)(=O)c2ccc(-c3ccc(N4CCOCC4)cc3)cc2)n1 [Example 251] | 29 nM | 83.6% |  |  |  |
| Cc1cccc(NS(=O)(=O)c2ccc(-c3ccc(C(C)C)cc3)c(C)c2)n1 [Example 233] | 110 nM | 78% |  |  |  |
| O=S(=O)(Nc1ccc2ccccc2n1)N1CCc2conc2CC1 [Example 315] | 25 nM | 86.1% |  |  |  |
| Cc1cccc(NS(=O)(=O)c2ccc(-c3ccc(F)cc3C)cc2)n1 [Example 253] | 33.4 nM | 79.3% |  |  |  |
| Cc1cccc(NS(=O)(=O)N2CCC(c3ccc(C#N)cc3)CC2)n1 [Example 310] | 18 nM |  |  |  | inhibition at 0.1 µM (11β-hsd-1 enzyme [2]; read-out: % inh @ 0.1 uM, compound at 0.1 uM): 100% |
| Cc1c(S(=O)(=O)Nc2cccc(CCO)n2)sc2ccc(Cl)cc12 [Example 115, 5-Chloro-3-methyl-benzo[b]thiophene-2-sulfonic acid [6-(2-hydroxy-ethyl)-pyridin-2-yl]-amide] |  |  | 4.8 nM | 93.6% |  |
| Cc1cccc(NS(=O)(=O)c2sc3ccc(F)cc3c2C)n1 [Example 103] |  |  | < 1 nM | 100% |  |
| Cc1cccc(NS(=O)(=O)c2ccc(-c3ccccc3)c(C)c2)n1 [Example 214] | 36 nM | 72% |  |  |  |
| Cc1cccc(NS(=O)(=O)c2ccc(-c3ccc(F)c(F)c3)cc2C)n1 [Example 208] | 6.7 nM | 95% |  |  |  |
| Nc1cccc(NS(=O)(=O)c2ccc(-c3ccc(C(F)(F)F)cc3)cc2)n1 [Example 95] |  |  | 4.4 nM | 100% |  |
| Cc1cccc(NS(=O)(=O)c2ccc(-c3ccc(F)cc3)nc2)n1 [Example 268] | 40 nM | 70% |  |  |  |
| Cc1cccc(NS(=O)(=O)c2ccc(-c3ccc(F)cc3)cc2C)n1 [Example 279] | 4.5 nM | 100% |  |  |  |
| Cc1cccc(NS(=O)(=O)c2ccc(-c3ccc(S(C)(=O)=O)cc3)cc2C)n1 [Example 200] | 21 nM | 88% |  |  |  |

| SMILES | Ki (11β-hsd-1 enzyme [1]; apparent Ki, 11β-hsd-1 enzyme) | inhibition at 0.1 µM (11β-hsd-1 enzyme [2]; [3]) | Ki (11β-hsd-1 enzyme [1]) | inhibition at 0.1 µM (11β-hsd-1 enzyme [2]; [4]) | also measured |
| --- | --- | --- | --- | --- | --- |
| N#Cc1ccc(-c2ccc(S(=O)(=O)Nc3ccc4ccccc4n3)cc2)nc1 [Example 288] | 11 nM | 91% |  |  |  |
| COc1ccc(-c2ccc(S(=O)(=O)Nc3cccc(C)n3)c(C)c2)cc1OC [Example 182] |  |  | 23 nM | 79% |  |
| CCN(CC)C(=O)Cc1cccc(NS(=O)(=O)c2ccc3ccccc3c2)n1 [Example 22] |  |  | 170 nM | 44.7% |  |
| Cc1cccc(NS(=O)(=O)c2ccc(-c3ccc(F)cc3)c(C)c2)n1 [Example 280] | 15 nM | 91% |  |  |  |
| Cc1cccc(NS(=O)(=O)c2ccc(-c3cc(F)cc(F)c3)cc2C)n1 [Example 178] |  |  | 8.2 nM | 95% |  |
| Cc1cccc(NS(=O)(=O)c2ccc(-c3ccncc3)cc2)n1 [Example 257] | 120 nM | 74.7% |  |  |  |
| CCc1ccc(-c2ccc(S(=O)(=O)Nc3cccc(C)n3)c(C)c2)cc1 [Example 191] |  |  | 11 nM | 100% |  |
| Cc1cccc(NS(=O)(=O)c2ccc(-c3ccc(C#N)cc3)cc2C)n1 [Example 277, 4′-Cyano-3-methyl-biphenyl-4-sulfonic acid (6-methyl-pyridin-2-yl)-amide] | < 1 nM | 100% |  |  |  |
| COc1cc(-c2ccc(S(=O)(=O)Nc3cccc(C)n3)cc2)ccc1C#N [Example 270, 4′-Cyano-3′-methoxy-biphenyl-4-sulfonic acid (6-methyl-pyridin-2-yl)-amide] | 10.7 nM | 94.8% |  |  |  |
| CCc1cccc(NS(=O)(=O)c2sc(-c3ccccc3)nc2C)n1 [Example 104] |  |  | 23 nM | 89.6% |  |
| Cc1cccc(NS(=O)(=O)c2sc(-c3ccc(C#N)cc3)nc2C)n1 [Example 118, 2-(4-Cyano-phenyl)-4-methyl-thiazole-5-sulfonic acid (6-methyl-pyridin-2-yl)-amide] |  |  | 2.5 nM | 100% |  |
| Cc1cccc(NS(=O)(=O)c2ccc(C(F)(F)F)cc2)n1 [Example 35] |  |  | 108 nM | 98% |  |
| Cc1cccc(NS(=O)(=O)c2ccc(-c3ccccc3F)cc2C)n1 [Example 186] |  |  | 9.3 nM | 95% |  |
| Cc1cccc(NS(=O)(=O)N2CCC(c3ccccc3)CC2)n1 [Example 306] | 7.4 nM | 100% |  |  |  |
| Cc1cccc(NS(=O)(=O)c2ccc(-c3ccc(Cl)cc3)cc2C)n1 [Example 168] |  |  | 2.8 nM | 96% |  |
| Cc1cccc(NS(=O)(=O)c2ccc(-c3ccc(C#N)cc3)nc2)n1 [Example 267, 6-(4-Cyano-phenyl)-pyridine-3-sulfonic acid (6-methyl-pyridin-2-yl)-amide] | 22.6 nM | 81.8% |  |  |  |
| Cc1cccc(NS(=O)(=O)c2ccc(-c3ccc(C#N)cc3)cc2F)n1 [Example 283, 4′-Cyano-3-fluoro-biphenyl-4-sulfonic acid (6-methyl-pyridin-2-yl)-amide] | 5.7 nM | 100% |  |  |  |
| Cc1cccc(NS(=O)(=O)c2ccc(-c3cccc(F)c3)cc2)n1 [Example 133] |  |  | 24.7 nM | 84.8% |  |
| Cc1cccc(NS(=O)(=O)c2ccc(-c3ccccc3)cc2C)n1 [Example 166] |  |  | 12 nM | 95% |  |
| CCc1cccc(NS(=O)(=O)N2CCc3ccccc3C2)n1 [Example 303] | 7.6 nM | 89.3% |  |  |  |

| SMILES | Ki (11β-hsd-1 enzyme [1]; apparent Ki, 11β-hsd-1 enzyme) | inhibition at 0.1 µM (11β-hsd-1 enzyme [2]; [3]) | Ki (11β-hsd-1 enzyme [1]) | inhibition at 0.1 µM (11β-hsd-1 enzyme [2]; [4]) | also measured |
| --- | --- | --- | --- | --- | --- |
| Cc1cccc(NS(=O)(=O)c2sc3ccc(Cl)cc3c2C)n1 [Example 46] |  |  | 3.2 nM | 98% |  |
| Nc1cccc(NS(=O)(=O)c2ccc(C(F)(F)F)cc2)n1 [Example 39] |  |  | 9 nM | 96% |  |
| CCc1cccc(NS(=O)(=O)c2sc3ccc(Cl)cc3c2C)n1 [Example 69] |  |  | 1.1 nM | 100% |  |
| Cc1cccc(NS(=O)(=O)c2ccc(-c3ccc(Cl)cc3)c(C)c2)n1 [Example 217] | 5 nM | 95% |  |  |  |
| Cc1cccc(NS(=O)(=O)c2cccc(Cl)c2C)n1 [Example 34] |  |  | 169 nM | 48.8% |  |
| Cc1cccc(NS(=O)(=O)c2ccc(-c3cccc(CO)c3)c(C)c2)n1 [Example 226] | 460 nM | 94% |  |  |  |
| Cc1cccc(NS(=O)(=O)c2ccc(-c3ccc(C(C)C)cc3)cc2C)n1 [Example 190] |  |  | 35 nM | 78% |  |
| Cc1cccc(NS(=O)(=O)N2CCC(Oc3ccccc3)CC2)n1 [Example 314] | 52 nM | 71.8% |  |  |  |
| COc1cc(S(=O)(=O)Nc2cccc(C)n2)ccc1-c1ccc(C#N)cc1 [Example 258] | 5.9 nM | 100% |  |  |  |
| Cc1cccc(NS(=O)(=O)c2ccc(-c3ccc(Cl)cc3Cl)cc2C)n1 [Example 167] |  |  | 36 nM | 100% |  |
| Cc1cccc(NS(=O)(=O)c2ccc(-c3ccc(F)cc3F)cc2C)n1 [Example 179] |  |  | 6.2 nM | 95% |  |
| Cc1cccc(NS(=O)(=O)c2ccc(-c3ccccc3C#N)cc2C)n1 [Example 195] |  |  | 17 nM | 82% |  |
| COc1cccc(-c2ccc(S(=O)(=O)Nc3cccc(C)n3)cc2)c1 [Example 160] |  |  | 36.2 nM | 66.8% |  |
| CCOC(=O)Cc1cccc(NS(=O)(=O)c2sc3ccc(Cl)cc3c2C)n1 [Example 6] |  |  | 2.8 nM | 100% |  |
| Cc1cccc(NS(=O)(=O)c2ccc(-c3cccc(Cl)c3Cl)cc2C)n1 [Example 196] |  |  | 7.1 nM | 90% |  |
| COc1ccc(-c2ccc(S(=O)(=O)Nc3cccc(C)n3)cc2)cc1 [Example 161] |  |  | 22.5 nM | 90.3% |  |
| N#Cc1ccc(-c2ccc(S(=O)(=O)Nc3ccc4occc4n3)cc2)cc1 [Example 86] |  |  | 14.3 nM | 100% |  |
| CC1(C)[C@@H](OC(=O)CCC(=O)O)CC[C@]2(C)[C@H]3C(=O)C=C4[C@@H]5C[C@@](C)(C(=O)O)CC[C@]5(C)CC[C@@]4(C)[C@]3(C)CC[C@@H]12 [carbenoxolone] |  |  |  |  | hepatic insulin sensitivity (healthy human volunteers): improved; reduction of intraocular pressure (normal subjects): 20% |

From patent publication US20050148631A1, “Amino heterocyclyl inhibitors of 11-beta-hydroxy steroid dehydrogenase type 1” (AGOURON PHARMACEUTICALS, INC., priority 2003, published 2005)
